Measured values as given in EP0059645A1, “Method and kit for identification of beta-lactamases” (NATIONAL RESEARCH DEVELOPMENT CORPORATION, priority 1981, dated 1982).
Marks after values point to notes of the source that are not given here.

Key:
OXA-1 [1] = target: T1, OXA-1 (Escherichia coli, UniProt P13661); experiment: Competitive assay with nitrocefin (RSAI); assay type: biochemical, E. coli 1527E; design: the beta-lactamase has to be extracted from the cells for the purpose of the present invention; made in house; host or cells: E. coli 1527E according to the earlier reading (crude cell extract)
[2] = target: T2, Chromosomal, induced beta-lactamase enzyme (Pseudomonas aeruginosa, UniProt P24735); experiment: Competitive assay with nitrocefin (RSAI); assay type: biochemical, Ps.aerug. 1937E + ampicillin
T2 construct: Normally, therefore, the beta-lactamase has to be extracted from the cells for the purpose of the present invention; endogenous in cells; host or cells: Pseudomonas aeruginosa 1937E grown with ampicillin

TEM-2 beta-lactamase = TEM-2 beta-lactamase (Escherichia coli, UniProt P62593, Q37K); assay type: biochemical, E. coli C9 RP4; settings: from kinetics of nitrocefin cleavage
K10317 = experiment: Competitive assay with nitrocefin (RSAI); assay type: biochemical, K.aerog. 10317
PSE-3 [3] = experiment: Competitive assay with nitrocefin (RSAI); assay type: biochemical, Ps.aerug. 1920E
PSE-4 [4] = target: T3, PSE-4 (Pseudomonas aeruginosa, UniProt P16897); experiment: Competitive assay with nitrocefin (RSAI); assay type: biochemical, Ps.aerug. 1559E; design: Normally, therefore, the beta-lactamase has to be extracted from the cells for the purpose of the present invention; endogenous in cells
[5] = target: T4, Chromosomal, constitutive beta-lactamase enzyme (Enterobacter cloacae, UniProt P05364); experiment: Competitive assay with nitrocefin (RSAI); assay type: biochemical, E. cloacae
T4 construct: Normally, therefore, the beta-lactamase has to be extracted from the cells for the purpose of the present invention; endogenous in cells

PSE-1 [6] = target: T5, PSE-1 (Pseudomonas aeruginosa, UniProt Q03170); experiment: Competitive assay with nitrocefin (RSAI); assay type: biochemical, Ps.aerug. 1937E; design: Normally, therefore, the beta-lactamase has to be extracted from the cells for the purpose of the present invention; endogenous in cells
OXA-2 [7] = target: T6, OXA-2 (Escherichia coli, UniProt P0A1V9); experiment: Competitive assay with nitrocefin (RSAI); assay type: biochemical, E. coli R46; design: the beta-lactamase has to be extracted from the cells for the purpose of the present invention; made in house; host or cells: E. coli carrying R46 according to the earlier reading (crude cell extract)
TEM-2 [8] = target: T7, TEM-2 (Escherichia coli, UniProt P62593, Q37K); experiment: Competitive assay with nitrocefin (RSAI); assay type: biochemical, E. coli 1725E
OXA-3 [9] = target: T8, OXA-3 (Pseudomonas aeruginosa, UniProt Q51429); experiment: Competitive assay with nitrocefin (RSAI); assay type: biochemical, E. coli R57B; design: Normally, therefore, the beta-lactamase has to be extracted from the cells for the purpose of the present invention; endogenous in cells
SHV-1 [10] = target: T9, SHV-1 (Escherichia coli, UniProt P0AD63); experiment: Competitive assay with nitrocefin (RSAI); assay type: biochemical, E. coli 2008E; design: the beta-lactamase has to be extracted from the cells for the purpose of the present invention; made in house; host or cells: E. coli 2008E (crude cell extract)
K17 = experiment: Competitive assay with nitrocefin (RSAI); assay type: biochemical, Klebsiella 17
[11] = target: Chromosomal, hyper-induced beta-lactamase enzyme (Escherichia coli, UniProt P00811); experiment: Competitive assay with nitrocefin (RSAI); assay type: biochemical, E. coli SNU35; design: Normally, therefore, the beta-lactamase has to be extracted from the cells for the purpose of the present invention; endogenous in cells; host or cells: E. coli SNU 35 (artificially produced strain)
PSE-2 [12] = target: T10, PSE-2 (Pseudomonas aeruginosa, UniProt P14489); experiment: Competitive assay with nitrocefin (RSAI); assay type: biochemical, Ps.aerug. 1973E; design: Normally, therefore, the beta-lactamase has to be extracted from the cells for the purpose of the present invention; endogenous in cells
TEM-1 [13] = target: T11, TEM-1 (Escherichia coli, UniProt P62593); experiment: Competitive assay with nitrocefin (RSAI); assay type: biochemical, E. coli 2136E; design: the beta-lactamase has to be extracted from the cells for the purpose of the present invention; made in house; host or cells: E. coli 2136E (plasmid-bearing strain; crude cell extract)
HMS-1 [14] = experiment: Competitive assay with nitrocefin (RSAI); assay type: biochemical, E. coli 1946
K1073 = experiment: Competitive assay with nitrocefin (RSAI); assay type: biochemical, Klebsiella 1073
PSE-1 [15] = target: T5, PSE-1; experiment: 6-well visual test with nitrocefin; settings: 3 minutes, room temperature
SHV-1 [16] = target: T9, SHV-1; experiment: 6-well visual test with nitrocefin; settings: 3 minutes, room temperature
OXA-1 [17] = target: T1, OXA-1; experiment: 6-well visual test with nitrocefin; settings: 3 minutes, room temperature
Ps +AMP (Chromosomal) = Ps +AMP (Chromosomal) (Pseudomonas aeruginosa, UniProt P24735); experiment: 6-well visual test with nitrocefin; settings: 3 minutes, room temperature
E. cloacae = E. cloacae (Enterobacter cloacae, UniProt P05364); experiment: 6-well visual test with nitrocefin; settings: 3 minutes, room temperature
TEM-2 [18] = target: T7, TEM-2; experiment: 6-well visual test with nitrocefin; settings: 3 minutes, room temperature
OXA-2 [19] = target: T6, OXA-2; experiment: 6-well visual test with nitrocefin; settings: 3 minutes, room temperature
PSE-4 [20] = target: T3, PSE-4; experiment: 6-well visual test with nitrocefin; settings: 3 minutes, room temperature
PSE-3 [21] = experiment: 6-well visual test with nitrocefin; settings: 3 minutes, room temperature
TEM-1 [22] = target: T11, TEM-1; experiment: 6-well visual test with nitrocefin; settings: 3 minutes, room temperature
HMS-1 [23] = experiment: 6-well visual test with nitrocefin; settings: 3 minutes, room temperature
PSE-2 [24] = target: T10, PSE-2; experiment: 6-well visual test with nitrocefin; settings: 3 minutes, room temperature
OXA-3 [25] = target: T8, OXA-3; experiment: 6-well visual test with nitrocefin; settings: 3 minutes, room temperature
[26] = well C: Cefamandole 1:1 to nitrocefin
[27] = well B: Cefotaxime 100:1 to nitrocefin
[28] = well D: Mecillinam 20:1 to nitrocefin

Row | SMILES | RSAI (OXA-1 [1]) | RSAI [2] | RSAI (K10317) | RSAI (PSE-3 [3]) | RSAI (PSE-4 [4]) | RSAI [5] | RSAI (PSE-1 [6]) | RSAI (OXA-2 [7]) | RSAI (TEM-2 [8]) | RSAI (OXA-3 [9]) | RSAI (SHV-1 [10]) | RSAI (K17) | RSAI [11] | RSAI (PSE-2 [12]) | RSAI (TEM-1 [13]) | RSAI (HMS-1 [14]) | RSAI (K1073) | further results
1 | Cc1onc(-c2ccccc2Cl)c1C(=O)N[C@@H]1C(=O)N2[C@@H]1SC(C)(C)[C@@H]2C(=O)O [Cloxacillin] | 0.6 | 0.00017 | 3.7* | 0.24 | 3.3 | 0.00004 | 2 | 30 | 0.5 | 0.01 | 2 | 14 | 0.0000016* | 4.5 | 0.75 | 0.02 | 4* | nature of the binding to the enzyme (TEM-2 beta-lactamase): does not undergo irreversible binding
2 | Cn1nnnc1SCC1=C(C(=O)O)N2C(=O)[C@@H](NC(=O)[C@H](O)c3ccccc3)[C@H]2SC1 [Cefaman-dole, Cefamandole] | 1.5 | 5 | 5 | 0.006 | 9 | 0.03 | 6.9 | 1.7 | 11 | 0.75 | 6.6 | 1.8 | 0.12* | 0.06 | 11 | 0.5 | 3.9 | Score in 6-well visual test (PSE-1 [15]; [26]): ++; Score in 6-well visual test (SHV-1 [16]; [26]): ++; Score in 6-well visual test (OXA-1 [17]; [26]): ++; Score in 6-well visual test (Ps +AMP (Chromosomal); [26]): +; Score in 6-well visual test (E. cloacae; [26]): -; Score in 6-well visual test (TEM-2 [18]; [26]): ++; Score in 6-well visual test (OXA-2 [19]; [26]): +; Score in 6-well visual test (PSE-4 [20]; [26]): ++; Score in 6-well visual test (PSE-3 [21]; [26]): -; Score in 6-well visual test (TEM-1 [22]; [26]): ++; Score in 6-well visual test (HMS-1 [23]; [26]): +; Score in 6-well visual test (PSE-2 [24]; [26]): -; Score in 6-well visual test (OXA-3 [25]; [26]): +
3 | CO/N=C(\C(=O)N[C@@H]1C(=O)N2C(C(=O)O)=C(COC(C)=O)CS[C@H]12)c1csc(N)n1 [Cefotaxime] | 9 | 0.004 | 320 | 100 | 50 | 0.0006 | 70 | 12 | 600 | 15 | 400 | 60 | 0.004 | 9.6 | 400 | 11 | 330 | Score in 6-well visual test (PSE-1 [15]; [27]): +; Score in 6-well visual test (SHV-1 [16]; [27]): ++; Score in 6-well visual test (OXA-1 [17]; [27]): -; Score in 6-well visual test (Ps +AMP (Chromosomal); [27]): -; Score in 6-well visual test (E. cloacae; [27]): -; Score in 6-well visual test (TEM-2 [18]; [27]): ++; Score in 6-well visual test (OXA-2 [19]; [27]): -; Score in 6-well visual test (PSE-4 [20]; [27]): +; Score in 6-well visual test (PSE-3 [21]; [27]): +; Score in 6-well visual test (TEM-1 [22]; [27]): ++; Score in 6-well visual test (HMS-1 [23]; [27]): -; Score in 6-well visual test (PSE-2 [24]; [27]): -; Score in 6-well visual test (OXA-3 [25]; [27]): -
4 | CC1(C)S[C@@H]2[C@H](/N=C/N3CCCCCC3)C(=O)N2[C@H]1C(=O)O [Mecil-linam, Mecillinam] | 400 | 68 | 80 | 15 | 140 | 1.3* | 66 | 100 | 80 | 30 | 80 | 260 | 0.7* | 450 | 90 | 2 | 102 | Score in 6-well visual test (PSE-1 [15]; [28]): ++; Score in 6-well visual test (SHV-1 [16]; [28]): ++; Score in 6-well visual test (OXA-1 [17]; [28]): ++; Score in 6-well visual test (Ps +AMP (Chromosomal); [28]): +; Score in 6-well visual test (E. cloacae; [28]): -; Score in 6-well visual test (TEM-2 [18]; [28]): ++; Score in 6-well visual test (OXA-2 [19]; [28]): +; Score in 6-well visual test (PSE-4 [20]; [28]): ++; Score in 6-well visual test (PSE-3 [21]; [28]): +; Score in 6-well visual test (TEM-1 [22]; [28]): ++; Score in 6-well visual test (HMS-1 [23]; [28]): -; Score in 6-well visual test (PSE-2 [24]; [28]): ++; Score in 6-well visual test (OXA-3 [25]; [28]): +
